Experimental data as given in PubChem BioAssay AID2060485 (Molecular Pharmacology Branch, DTP, NCI, 2025).

System: A375 multi-cell spheroids with HUVEC/MSC, viability
Experiment: Anticancer human tumor A375 cell line growth inhibition [GQUAD];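 also: spheroids exposed to compounds for seven days before readout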
Conditions: for IC50: curve of first compound; for viability, T/C: stronger effect = lower value
Method in brief: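 Multi-cell-type spheroids of tumor cells with HUVEC and mesenchymal stem cells, treated with drug combinations. Concentrations descend in half-log steps from near clinical Cmax, or from 10 microM where Cmax is unknown; viability read-out.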

[1] = second compound 0.0316 µM, first compound 0.0316 µM
[2] = second compound 0.0316 µM, first compound 0.1 µM
[3] = second compound 0.0316 µM, first compound 0.316 µM
[4] = second compound 0.0316 µM, first compound 1 µM
[5] = second compound 0.0316 µM, first compound 3.16 µM
[6] = second compound 0.0316 µM, first compound 10 µM
[7] = second compound 0.1 µM, first compound 0.0316 µM
[8] = second compound 0.1 µM, first compound 0.1 µM
[9] = second compound 0.1 µM, first compound 0.316 µM
[10] = second compound 0.1 µM, first compound 1 µM
[11] = second compound 0.1 µM, first compound 3.16 µM
[12] = second compound 0.1 µM, first compound 10 µM
[13] = second compound 0.316 µM, first compound 0.0316 µM
[14] = second compound 0.316 µM, first compound 0.1 µM
[15] = second compound 0.316 µM, first compound 0.316 µM
[16] = second compound 0.316 µM, first compound 1 µM
[17] = second compound 0.316 µM, first compound 3.16 µM
[18] = second compound 0.316 µM, first compound 10 µM
[19] = second compound 1 µM, first compound 0.0316 µM
[20] = second compound 1 µM, first compound 0.1 µM
[21] = second compound 1 µM, first compound 0.316 µM
[22] = second compound 1 µM, first compound 1 µM
[23] = second compound 1 µM, first compound 3.16 µM
[24] = second compound 1 µM, first compound 10 µM
[25] = second compound 3.16 µM, first compound 0.0316 µM
[26] = second compound 3.16 µM, first compound 0.1 µM
[27] = second compound 3.16 µM, first compound 0.316 µM
[28] = second compound 3.16 µM, first compound 1 µM
[29] = second compound 3.16 µM, first compound 3.16 µM
[30] = second compound 3.16 µM, first compound 10 µM
[31] = second compound 10 µM, first compound 0.0316 µM
[32] = second compound 10 µM, first compound 0.1 µM
[33] = second compound 10 µM, first compound 0.316 µM
[34] = second compound 10 µM, first compound 1 µM
[35] = second compound 10 µM, first compound 3.16 µM
[36] = second compound 10 µM, first compound 10 µM

COc1cccc2c1C(=O)c1c(O)c3c(c(O)c1C2=O)CC(O)(C(=O)CO)CC3OC1CC(N)C(O)C(C)O1 (centres undefined) + Cc1[nH]c2ccc(F)cc2c1-c1nc2c3cccnc3c3ncccc3c2[nH]1
IC50 (second compound 0.0316 µM): 0.271 µM
IC50 (second compound 0.1 µM): 0.216 µM
IC50 (second compound 0.316 µM): 0.286 µM
IC50 (second compound 1 µM): 0.251 µM
IC50 (second compound 3.16 µM): 0.288 µM
IC50 (second compound 10 µM): 0.326 µM
viability, T/C [1]: 101%
viability, T/C [2]: 90.8%
viability, T/C [3]: 38.9%
viability, T/C [4]: 20.5%
viability, T/C [5]: 2.15%
viability, T/C [6]: 0.1%
viability, T/C [7]: 103%
viability, T/C [8]: 74.5%
viability, T/C [9]: 35.2%
viability, T/C [10]: 19.8%
viability, T/C [11]: 2.23%
viability, T/C [12]: 0.08%
viability, T/C [13]: 110%
viability, T/C [14]: 89.2%
viability, T/C [15]: 41.3%
viability, T/C [16]: 22.7%
viability, T/C [17]: 3.01%
viability, T/C [18]: 0.09%
viability, T/C [19]: 99.3%
viability, T/C [20]: 82.8%
viability, T/C [21]: 38.7%
viability, T/C [22]: 18.7%
viability, T/C [23]: 3.16%
viability, T/C [24]: 0.1%
viability, T/C [25]: 68.2%
viability, T/C [26]: 60.1%
viability, T/C [27]: 49.4%
viability, T/C [28]: 21.3%
viability, T/C [29]: 0.45%
viability, T/C [30]: 0.13%
viability, T/C [31]: 71.9%
viability, T/C [32]: 72%
viability, T/C [33]: 48.9%
viability, T/C [34]: 20.9%
viability, T/C [35]: 1.35%
viability, T/C [36]: 0.22%

Nc1ccn(C2OC(CO)C(O)C2(F)F)c(=O)n1 (centres undefined) + CN(C)c1ccc(Nc2c3ccc(NC(=O)CCN4CCCC4)cc3nc3cc(NC(=O)CCN4CCCC4)ccc23)cc1
IC50 (second compound 0.0316 µM): < 0.0316 µM
IC50 (second compound 0.1 µM): < 0.0316 µM
IC50 (second compound 0.316 µM): < 0.0316 µM
IC50 (second compound 1 µM): < 0.0316 µM
IC50 (second compound 3.16 µM): < 0.0316 µM
IC50 (second compound 10 µM): < 0.0316 µM
viability, T/C [1]: 13.1%
viability, T/C [2]: 5.96%
viability, T/C [3]: 5.05%
viability, T/C [4]: 6.71%
viability, T/C [5]: 7.93%
viability, T/C [6]: 7.84%
viability, T/C [7]: 12.4%
viability, T/C [8]: 6.04%
viability, T/C [9]: 6.62%
viability, T/C [10]: 6.98%
viability, T/C [11]: 7.52%
viability, T/C [12]: 8.82%
viability, T/C [13]: 13.4%
viability, T/C [14]: 5.96%
viability, T/C [15]: 6.92%
viability, T/C [16]: 7.41%
viability, T/C [17]: 8.24%
viability, T/C [18]: 9.65%
viability, T/C [19]: 11%
viability, T/C [20]: 6.99%
viability, T/C [21]: 6.31%
viability, T/C [22]: 6.93%
viability, T/C [23]: 7.59%
viability, T/C [24]: 10.1%
viability, T/C [25]: 13.2%
viability, T/C [26]: 6.34%
viability, T/C [27]: 6.54%
viability, T/C [28]: 7.74%
viability, T/C [29]: 8.41%
viability, T/C [30]: 9.18%
viability, T/C [31]: 11.4%
viability, T/C [32]: 5.96%
viability, T/C [33]: 6.62%
viability, T/C [34]: 6.28%
viability, T/C [35]: 9.34%
viability, T/C [36]: 7.97%
